Test results as given in patent EP0192609A2, “Acylated hexose derivatives and method for their preparation” (CIBA-GEIGY AG, priority 1985, dated 1986).

System: Influenza-Viren
Assay: own studies in mice infected with influenza viruses (prophylaxis and therapy of virus infection, compound alone without vaccine)
Type: in vivo, Mäuse
Conditions: per se, i.e. without added vaccine
From the text: Aus der Französischen Patentanmeldung Nr. 74 22 909 mit der Publikationsnummer 2 292 486 sind Muramylpeptide vom Typ der Verbindung N-Acetyl-muramyl-L-alanyl-D-isoglutamin ("MDP") bekannt. Diese Verbindungen sind als immunologische Adjuvanzien beschrieben, d.h. sie können in Mischung mit Impfstoffen dazu benützt werden, den Impferfolg zu verbessern. Eigene Untersuchungen, z.B. bei mit Influenza-Viren infizierten Mäusen, haben ergeben, dass N-Acetyl-muramyl-L-alanyl-D-isoglutamin per se, d.h. ohne Beimengung von Impfstoffen, bei der Prophylaxe und Therapie von Virusinfektionen unwirksam ist. Auch ist die Verwendbarkeit strukturell einfacher Muramylpeptide und ihrer Analogen gegen Virusinfektionen bisher nicht beschrieben.

In the case of `CC(=O)N[C@H]1C(O)O[C@H](CO)[C@@H](O)[C@@H]1O[C@H](C)C(=O)N[C@@H](C)C(=O)N[C@H](CCC(=O)O)C(N)=O` (stereo partly drawn) [N-Acetyl-muramyl-L-alanyl-D-isoglutamin], the “Wirksamkeit bei der Prophylaxe und Therapie von Virusinfektionen” value is reported as “unwirksam”.
